# From paper PMC2694132 (Cancer research, 2009)
# Assays:
# Format in all cases: in vitro ADME
# [1] = molecular target: T1, UGT1A5 (Homo sapiens, UniProt P35504); experiment: SAHA glucuronidation screen, UGT1A5-overexpressing cell homogenate; settings: 400 μg UGT-overexpressing cell homogenate, 1-h incubation
# T1 sequence (P35504 29-534): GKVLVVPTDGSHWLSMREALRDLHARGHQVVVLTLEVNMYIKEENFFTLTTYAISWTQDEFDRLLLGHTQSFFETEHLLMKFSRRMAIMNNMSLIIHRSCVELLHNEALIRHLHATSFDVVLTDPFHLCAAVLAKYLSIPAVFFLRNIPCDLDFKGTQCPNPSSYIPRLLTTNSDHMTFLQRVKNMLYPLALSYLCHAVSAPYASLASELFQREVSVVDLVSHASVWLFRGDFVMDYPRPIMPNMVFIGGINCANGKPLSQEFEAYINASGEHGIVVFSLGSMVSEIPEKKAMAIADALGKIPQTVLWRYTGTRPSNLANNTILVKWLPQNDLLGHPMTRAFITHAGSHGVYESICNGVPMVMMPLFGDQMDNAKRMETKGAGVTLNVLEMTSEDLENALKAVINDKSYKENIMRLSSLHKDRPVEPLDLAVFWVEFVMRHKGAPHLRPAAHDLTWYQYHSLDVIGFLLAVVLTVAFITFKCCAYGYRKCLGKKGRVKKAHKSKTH
# [2] = molecular target: T2, UGT2B11 (Homo sapiens, UniProt O75310); experiment: SAHA glucuronidation screen, UGT2B11-overexpressing cell homogenate; settings: 400 μg UGT-overexpressing cell homogenate, 1-h incubation
# T2 sequence (O75310 22-529): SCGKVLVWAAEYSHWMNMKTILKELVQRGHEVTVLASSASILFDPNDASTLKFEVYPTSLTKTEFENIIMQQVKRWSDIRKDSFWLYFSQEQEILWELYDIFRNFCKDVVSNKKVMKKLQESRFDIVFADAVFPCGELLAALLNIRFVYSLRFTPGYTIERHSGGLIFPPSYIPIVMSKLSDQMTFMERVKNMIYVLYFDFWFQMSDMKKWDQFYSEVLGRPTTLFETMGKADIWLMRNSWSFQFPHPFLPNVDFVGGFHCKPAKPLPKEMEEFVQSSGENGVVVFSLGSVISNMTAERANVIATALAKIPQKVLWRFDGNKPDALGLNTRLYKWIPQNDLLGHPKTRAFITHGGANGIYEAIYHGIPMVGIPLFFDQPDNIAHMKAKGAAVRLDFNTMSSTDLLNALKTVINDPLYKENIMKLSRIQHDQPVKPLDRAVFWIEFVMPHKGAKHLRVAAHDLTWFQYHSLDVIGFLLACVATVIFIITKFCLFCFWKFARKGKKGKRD
# [3] = molecular target: T3, UGT1A4 (Homo sapiens, UniProt P22310); experiment: SAHA glucuronidation screen, UGT1A4-overexpressing cell homogenate
# T3 sequence (P22310 29-534): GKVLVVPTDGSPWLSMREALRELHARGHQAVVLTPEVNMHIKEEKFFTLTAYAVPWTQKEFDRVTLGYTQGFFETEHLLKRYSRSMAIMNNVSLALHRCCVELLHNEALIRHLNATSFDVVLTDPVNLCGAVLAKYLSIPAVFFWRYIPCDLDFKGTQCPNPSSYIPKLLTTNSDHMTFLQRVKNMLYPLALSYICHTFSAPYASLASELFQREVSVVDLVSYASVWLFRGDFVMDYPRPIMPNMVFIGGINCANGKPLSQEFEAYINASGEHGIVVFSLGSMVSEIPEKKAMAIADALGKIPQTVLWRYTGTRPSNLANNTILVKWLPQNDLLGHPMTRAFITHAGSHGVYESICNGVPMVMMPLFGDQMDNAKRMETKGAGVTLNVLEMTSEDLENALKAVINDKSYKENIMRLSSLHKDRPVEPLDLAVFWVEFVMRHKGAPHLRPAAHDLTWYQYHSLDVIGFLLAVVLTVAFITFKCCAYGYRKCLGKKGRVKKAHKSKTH
# [4] = molecular target: T4, UGT1A1 (Homo sapiens, UniProt P22309); experiment: SAHA glucuronidation screen, UGT1A1-overexpressing cell homogenate
# T4 sequence (P22309 26-533): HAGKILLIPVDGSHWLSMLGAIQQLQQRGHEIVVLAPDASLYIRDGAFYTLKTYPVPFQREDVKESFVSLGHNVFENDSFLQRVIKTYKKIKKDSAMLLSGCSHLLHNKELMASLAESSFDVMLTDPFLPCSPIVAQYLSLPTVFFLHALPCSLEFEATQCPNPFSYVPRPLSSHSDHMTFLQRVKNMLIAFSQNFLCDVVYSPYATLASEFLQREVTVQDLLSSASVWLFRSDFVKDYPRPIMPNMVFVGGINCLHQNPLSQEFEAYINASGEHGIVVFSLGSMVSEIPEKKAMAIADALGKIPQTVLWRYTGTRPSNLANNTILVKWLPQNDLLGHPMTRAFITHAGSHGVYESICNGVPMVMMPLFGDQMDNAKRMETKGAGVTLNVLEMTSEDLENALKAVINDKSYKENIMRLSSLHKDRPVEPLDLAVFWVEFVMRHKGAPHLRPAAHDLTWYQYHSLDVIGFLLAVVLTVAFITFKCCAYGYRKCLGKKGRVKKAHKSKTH
# [5] = molecular target: T5, UGT2B7 (Homo sapiens, UniProt P16662); experiment: SAHA glucuronidation screen, UGT2B7-overexpressing cell homogenate
# T5 sequence (P16662 24-529): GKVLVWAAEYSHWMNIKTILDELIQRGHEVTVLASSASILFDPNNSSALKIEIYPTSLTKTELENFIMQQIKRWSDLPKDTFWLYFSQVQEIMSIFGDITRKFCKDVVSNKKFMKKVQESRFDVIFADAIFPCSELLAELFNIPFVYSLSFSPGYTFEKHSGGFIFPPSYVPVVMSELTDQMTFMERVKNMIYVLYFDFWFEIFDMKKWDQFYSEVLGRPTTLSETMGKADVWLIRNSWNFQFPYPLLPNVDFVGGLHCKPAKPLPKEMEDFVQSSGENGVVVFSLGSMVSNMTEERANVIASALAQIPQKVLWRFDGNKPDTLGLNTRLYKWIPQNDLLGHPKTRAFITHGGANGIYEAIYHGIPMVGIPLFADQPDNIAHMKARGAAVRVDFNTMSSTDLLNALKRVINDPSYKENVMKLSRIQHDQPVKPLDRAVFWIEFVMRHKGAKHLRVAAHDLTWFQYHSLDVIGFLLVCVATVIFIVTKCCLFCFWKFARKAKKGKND
# [6] = 400 μg UGT-overexpressing cell homogenate, 1-h incubation
structure (smiles),measurement,setting,value
"O=C(CCCCCCC(=O)Nc1ccccc1)NO [SAHA, Suberoylanilide hydroxamic acid]",glucuronidation activity against SAHA (screen),[1],No detectable glucuronidation activity
same,glucuronidation activity against SAHA (screen),[2],No detectable glucuronidation activity
same,glucuronidation against SAHA,[3]; [6],detectable levels of glucuronidation
same,Km at 1 h,"[3]; human, UGT1A4-overexpressing cell homogenate, pH 7.5",> 8 mM
same,Km at 1 h,"[4]; human, UGT1A1-overexpressing cell homogenate, pH 7.5",> 8 mM
same,glucuronidation against SAHA,"[4]; in vitro, UGT-overexpressing cell homogenate",detectable levels of glucuronidation
same,glucuronidation against SAHA,[5]; [6],detectable levels of glucuronidation
same,Km at 1 h,"[5]; human, UGT2B7-overexpressing cell homogenate, pH 7.5",> 8 mM
